The values that follow come from patent publication US8962641B2, “Pyrimidine-substituted pyrrolidine derivatives, pharmaceutical compositions and uses thereof” (Boehringer Ingelheim International GmbH, priority 2013, dated 2015).

Sequence of human ACC2 (O00763 129-2458): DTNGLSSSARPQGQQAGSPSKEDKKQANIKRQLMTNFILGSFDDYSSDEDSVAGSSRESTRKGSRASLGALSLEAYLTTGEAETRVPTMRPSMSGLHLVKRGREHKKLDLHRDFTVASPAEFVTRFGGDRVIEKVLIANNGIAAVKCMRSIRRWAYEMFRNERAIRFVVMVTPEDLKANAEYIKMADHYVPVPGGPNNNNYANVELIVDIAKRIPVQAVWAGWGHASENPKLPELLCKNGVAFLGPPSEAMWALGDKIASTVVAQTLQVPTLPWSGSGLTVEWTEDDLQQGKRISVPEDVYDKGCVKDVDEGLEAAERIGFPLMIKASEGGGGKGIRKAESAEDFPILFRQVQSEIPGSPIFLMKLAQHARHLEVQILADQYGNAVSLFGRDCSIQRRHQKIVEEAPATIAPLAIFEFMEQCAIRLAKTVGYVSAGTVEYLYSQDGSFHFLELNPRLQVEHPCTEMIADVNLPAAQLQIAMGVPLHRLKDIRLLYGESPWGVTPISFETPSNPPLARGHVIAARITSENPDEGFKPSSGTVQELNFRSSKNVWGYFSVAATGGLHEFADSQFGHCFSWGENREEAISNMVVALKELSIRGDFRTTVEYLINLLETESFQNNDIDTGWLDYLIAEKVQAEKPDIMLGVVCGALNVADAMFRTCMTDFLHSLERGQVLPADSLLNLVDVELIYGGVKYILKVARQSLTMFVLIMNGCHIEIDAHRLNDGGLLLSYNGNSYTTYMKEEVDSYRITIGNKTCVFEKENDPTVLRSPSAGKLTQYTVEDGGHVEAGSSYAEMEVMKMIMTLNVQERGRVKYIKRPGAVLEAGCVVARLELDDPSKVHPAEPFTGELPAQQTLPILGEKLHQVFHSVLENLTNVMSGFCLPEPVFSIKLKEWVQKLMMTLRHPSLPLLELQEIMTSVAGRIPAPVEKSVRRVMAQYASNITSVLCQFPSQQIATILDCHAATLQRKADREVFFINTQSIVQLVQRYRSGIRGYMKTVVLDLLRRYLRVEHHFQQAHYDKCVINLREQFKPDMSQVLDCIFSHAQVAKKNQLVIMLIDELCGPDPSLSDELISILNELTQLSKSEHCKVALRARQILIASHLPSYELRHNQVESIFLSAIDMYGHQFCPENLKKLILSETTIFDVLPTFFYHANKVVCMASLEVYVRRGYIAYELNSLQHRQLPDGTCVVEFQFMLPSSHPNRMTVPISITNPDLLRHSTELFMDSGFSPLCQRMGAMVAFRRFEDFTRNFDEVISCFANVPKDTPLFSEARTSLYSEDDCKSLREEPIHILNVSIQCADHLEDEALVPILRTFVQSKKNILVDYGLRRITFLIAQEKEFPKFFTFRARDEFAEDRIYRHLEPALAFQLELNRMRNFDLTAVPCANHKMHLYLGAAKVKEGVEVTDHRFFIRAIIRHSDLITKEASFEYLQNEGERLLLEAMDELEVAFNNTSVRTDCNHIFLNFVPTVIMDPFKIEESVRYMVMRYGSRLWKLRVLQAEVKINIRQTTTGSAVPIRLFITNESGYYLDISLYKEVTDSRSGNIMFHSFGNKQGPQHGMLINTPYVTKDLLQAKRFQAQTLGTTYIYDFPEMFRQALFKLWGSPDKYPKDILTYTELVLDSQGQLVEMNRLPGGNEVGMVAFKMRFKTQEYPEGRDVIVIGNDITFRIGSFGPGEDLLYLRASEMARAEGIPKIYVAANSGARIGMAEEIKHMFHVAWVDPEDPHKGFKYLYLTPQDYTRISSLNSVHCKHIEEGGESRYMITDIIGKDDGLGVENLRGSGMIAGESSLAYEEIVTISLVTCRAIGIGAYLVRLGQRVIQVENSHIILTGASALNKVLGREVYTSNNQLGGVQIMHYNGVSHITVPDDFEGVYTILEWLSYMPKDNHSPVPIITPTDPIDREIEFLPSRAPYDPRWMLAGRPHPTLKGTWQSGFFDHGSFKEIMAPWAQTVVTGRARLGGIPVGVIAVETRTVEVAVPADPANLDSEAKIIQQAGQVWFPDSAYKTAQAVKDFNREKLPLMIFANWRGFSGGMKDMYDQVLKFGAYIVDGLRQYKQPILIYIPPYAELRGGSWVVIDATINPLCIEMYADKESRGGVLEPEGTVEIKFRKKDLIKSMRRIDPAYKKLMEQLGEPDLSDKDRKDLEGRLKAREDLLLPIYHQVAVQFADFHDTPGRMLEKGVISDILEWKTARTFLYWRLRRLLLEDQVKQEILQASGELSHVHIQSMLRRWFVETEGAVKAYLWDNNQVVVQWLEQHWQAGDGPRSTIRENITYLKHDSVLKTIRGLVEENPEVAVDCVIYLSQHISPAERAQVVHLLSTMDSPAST

The target of the experiment is human ACC2 (Homo sapiens (Human), UniProt O00763). Briefly: ACC2 assay (spectrophotometric 384 well assay, NADH-linked kinetic method). The format is biochemical. The following applies: hACC2 construct lacking 128 N-terminal amino acids; coupled lactate dehydrogenase/pyruvate kinase reaction, 340 nm, 25° C. In outline:
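Baculovirus/insect-cell human ACC2, anion-exchange purified; ADP formation coupled to pyruvate kinase/lactate dehydrogenase, NADH loss followed at 340 nm, 25° C, 15 min. Final 200 μM NADH and acetyl-CoA, 500 uM ATP; vehicle and no-acetyl-CoA wells set 100% and 0%.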
For the molecule `CC(=O)N[C@@H](C)c1ccc(O[C@@H]2CCN(c3ncnc(N(C)C)c3F)C2)cc1` [Example 8.93], the IC50 amounted to 440 nM.

Consider `CC(=O)N[C@@H](C)c1ccc(O[C@@H]2CCN(c3ncnc(N4CC(C)C4)c3F)C2)cc1` [Example 8.200], for which the IC50 is 354 nM.

`CCCN(C)c1ncnc(N2CC[C@@H](Oc3ccc([C@H](C)NC(C)=O)cc3)C2)c1F` [Example 8.144]: half-maximal inhibition (IC50) required 104 nM.

`CC(=O)N[C@@H](C)c1ccc(O[C@@H]2CCN(c3ncnc(N4CCOC(C)C4)c3F)C2)cc1` (some centres unmarked) [Example 8.179]: it took 358 nM to reach half-maximal inhibition (IC50).

In turn, `COc1ccc(N(C)c2nccc(N3CC[C@@H](Oc4ccc([C@H](C)NC(C)=O)cc4)C3)n2)cc1` [Example 8.38] showed an IC50 of 1220 nM.

`CC(=O)N[C@@H](C)c1ccc(O[C@@H]2CCN(c3nc(N4CCC5(CC5)C4)ncc3F)C2)cc1` [Example 8.226] displayed a 50% inhibitory concentration (IC50) of 52 nM.

Turning to `CC(=O)N[C@@H](C)c1ccc(O[C@@H]2CCN(c3nc(N4CCCCC4)ncc3F)C2)cc1` [Example 8.8], half-maximal inhibition (IC50) required 45 nM.

`CC(=O)N[C@@H](C)c1ccc(O[C@@H]2CCN(c3nc(N(C)C4CCOCC4)ncc3F)C2)cc1` [Example 8.157] gave an IC50 of 105 nM.

Molecule `CC(=O)N[C@@H](C)c1ccc(O[C@@H]2CCN(c3ccnc(N4CCCOCC4)n3)C2)cc1` [Example 8.264] registered a half-inhibitory concentration (IC50) of 282 nM.

Regarding `CC(=O)N[C@@H](C)c1ccc(O[C@@H]2CCN(c3ncnc(OCC4CC4)c3F)C2)cc1` [Example 7.1, N—((S)-1-(4-((R)-1-(6-(cyclopropylmethoxy)-5-fluoropyrimidin-4-yl)pyrrolidin-3-yloxy)phenyl)ethyl)acetamide], the concentration for half-maximal inhibition (IC50) amounted to 35 nM.

The molecule `COC[C@@H](C)N(C)c1ncc(Cl)c(N2CC[C@@H](Oc3ccc([C@H](C)NC(C)=O)cc3)C2)n1` [Example 8.225] displayed an IC50 of 199 nM.

In turn, `COC[C@H](C)N(C)c1nccc(N2CC[C@@H](Oc3ccc([C@H](C)NC(C)=O)cc3)C2)n1` [Example 8.204] had a concentration for half-maximal inhibition (IC50) of 945 nM.

Regarding `CC(=O)N[C@@H](C)c1ccc(O[C@@H]2CCN(c3nc(N4CCC(C)(C)C4)ncc3F)C2)cc1` [Example 8.194], the IC50 turned out to be 128 nM.

For `CC(=O)N[C@@H](C)c1ccc(O[C@@H]2CCN(c3nc(N4CCCC(F)(F)C4)ncc3F)C2)cc1` [Example 8.218], the IC50 stood at 140 nM.

The molecule `CCN(CC)c1ncnc(N2CC[C@@H](Oc3ccc([C@H](C)NC(C)=O)cc3)C2)c1C` [Example 8.100] returned an IC50 of 180 nM.

The molecule `CCN(C)C(=O)N[C@@H](C)c1ccc(OC2CCN(c3ccnc(N4CCOCC4)n3)C2)cc1` (some centres unmarked) [Example 3.7] yielded a half-inhibitory concentration (IC50) of 374 nM.

`CC(=O)N[C@@H](C)c1ccc(O[C@@H]2CCN(c3nc(N4CCC[C@@H]4C)ncc3F)C2)cc1` [Example 8.282] showed a half-inhibitory concentration (IC50) of 157 nM.

For `CCN(C)c1nccc(N2CCC(Oc3ccc([C@H](C)NC(=O)C4CC4)cc3)C2)n1` (some centres unmarked) [Example 2.14], the half-maximal inhibitory concentration (IC50) was 63 nM.

In the case of `COc1cccc(-c2nccc(N3CC[C@@H](Oc4ccc([C@H](C)NC(C)=O)cc4)C3)n2)c1` [Example 9.1, N—((S)-1-(4-((R)-1-(2-(3-methoxyphenyl)pyrimidin-4-yl)pyrrolidin-3-yloxy)phenyl)ethyl)acetamide], the half-maximal inhibitory concentration (IC50) worked out at 725 nM.

The molecule `CC(=O)N[C@@H](C)c1ccc(O[C@@H]2CCN(c3ccnc(N(C)C)n3)C2)cc1` [Example 8.14] registered a 50% inhibitory concentration (IC50) of 710 nM.

Molecule `CC(=O)N[C@@H](C)c1ccc(O[C@@H]2CCN(c3ncnc(OC4CCC4)c3F)C2)cc1` [Example 7.27] gave an IC50 of 35 nM.

The molecule `CC(=O)N[C@@H](C)c1ccc(O[C@@H]2CCN(c3nc(N(C)CC4CCOC4)ncc3F)C2)cc1` (some centres unmarked) [Example 8.29] had a concentration for half-maximal inhibition (IC50) of 150 nM.

For `CC(=O)N[C@@H](C)c1ccc(O[C@@H]2CCN(c3nc(N(C)CC(C)C)ncc3Cl)C2)cc1` [Example 8.223], the 50% inhibitory concentration (IC50) came to 103 nM.

Consider `CC(=O)N[C@@H](C)c1ccc(O[C@@H]2CCN(c3ccnc(NC4CCCC4)n3)C2)cc1` [Example 8.4], for which the half-maximal inhibitory concentration (IC50) amounted to 1030 nM.

The molecule `CC(=O)N[C@@H](C)c1ccc(O[C@@H]2CCN(c3nc(N(C)CC4CCOC4)ncc3C)C2)cc1` (some centres unmarked) [Example 8.52] had a 50% inhibitory concentration (IC50) of 905 nM.

`C[C@H](NC(=O)c1cnco1)c1ccc(OC2CCN(c3ccnc(N4CCOCC4)n3)C2)cc1` (some centres unmarked) [Example 2.6] gave an IC50 of 320 nM.

`CC(=O)N[C@@H](C)c1ccc(O[C@@H]2CCN(c3nc(N4CCOC(C(F)(F)F)C4)ncc3F)C2)cc1` (some centres unmarked) [Example 8.257]: 121 nM corresponded to half-maximal inhibition (IC50).

`CC(=O)N[C@@H](C)c1ccc(O[C@@H]2CCN(c3nccc(N4CCCC4)n3)C2)cc1` [Example 6.10] yielded an IC50 of 929 nM.

`CCCNc1ncnc(N2CC[C@@H](Oc3ccc([C@H](C)NC(C)=O)cc3)C2)c1F` [Example 8.120]: the midpoint of inhibition, the IC50, lay at 413 nM.

For the molecule `CC(=O)N[C@@H](C)c1ccc(O[C@@H]2CCN(c3nc(N4CCCC4(C)C)ncc3F)C2)cc1` [Example 8.271], it took 170 nM to reach half-maximal inhibition (IC50).

In the case of `COC1CCCN(c2ncnc(N3CC[C@@H](Oc4ccc([C@H](C)NC(C)=O)cc4)C3)c2F)C1` (some centres unmarked) [Example 8.252], the concentration for half-maximal inhibition (IC50) worked out at 1060 nM.

For `CCCNc1ncnc(N2CC[C@@H](Oc3ccc([C@H](C)NC(=O)c4sc(NC(=O)CC)nc4C)cc3)C2)c1Cl` [Example 8.312], half-maximal inhibition (IC50) was put at 286 nM.

On to `CC(=O)N[C@@H](C)c1ccc(O[C@@H]2CCN(c3ccnc(N(C)C[C@@H]4CCCO4)n3)C2)cc1` [Example 8.203], for which 334 nM corresponded to half-maximal inhibition (IC50).

`CCCN(C)c1ncc(C)c(N2CC[C@@H](Oc3ccc([C@H](C)NC(C)=O)cc3)C2)n1` [Example 8.48] came in with an IC50 of 312 nM.

`CCCN(C)c1ncc(Br)c(N2CC[C@@H](Oc3ccc([C@H](C)NC(C)=O)cc3)C2)n1` [Example 8.62]: the half-inhibitory concentration (IC50) came out at 184 nM.

`CC(=O)N[C@@H](C)c1ccc(O[C@@H]2CCN(c3ccnc(N4CC=CC4)n3)C2)cc1` [Example 8.196] gave an IC50 of 277 nM.

For `CCN(C)c1nccc(N2CCC(Oc3ccc([C@H](C)NC(=O)c4sc(NC(C)=O)nc4C)cc3)C2)n1` (some centres unmarked) [Example 2.8], the IC50 turned out to be 245 nM.

`COC1CCN(c2ncc(F)c(N3CC[C@@H](Oc4ccc([C@H](C)NC(C)=O)cc4)C3)n2)CC1` [Example 8.193] showed a half-maximal inhibitory concentration (IC50) of 229 nM.

The molecule `CC(=O)N[C@@H](C)c1ccc(O[C@@H]2CCN(c3ccnc(N4C[C@@H]5CC[C@@H](C4)O5)n3)C2)cc1` [Example 8.277] showed an IC50 of 867 nM.

For the molecule `COC[C@H]1CCCN1c1ncnc(N2CC[C@@H](Oc3ccc([C@H](C)NC(C)=O)cc3)C2)c1F` [Example 8.197], half-maximal inhibition (IC50) required 733 nM.

The molecule `CC(=O)N[C@@H](C)c1ccc(O[C@@H]2CCN(c3ccnc(N4CCCC4)n3)C2)cc1` [Example 8.5] came in with an IC50 of 403 nM.

With `CCOc1ncnc(N2CC[C@@H](Oc3ccc([C@H](C)NC(C)=O)cc3)C2)c1C` [Example 7.24], the 50% inhibitory concentration (IC50) is 394 nM.

`COc1c(OCC2CC2)ncnc1N1CC[C@@H](Oc2ccc([C@H](C)NC(=O)c3oc(NC(C)=O)nc3C)cc2)C1` [Example 2.32] displayed an IC50 of 809 nM.

Molecule `CC(=O)N[C@@H](C)c1ccc(O[C@@H]2CCN(c3nc(N4CCC(F)(F)CC4)ncc3F)C2)cc1` [Example 8.261] displayed a half-inhibitory concentration (IC50) of 96 nM.

Turning to `COc1c(OCC2CC2)ncnc1N1CC[C@@H](Oc2ccc([C@H](C)NC(=O)c3coc(NC(C)=O)n3)cc2)C1` [Example 2.33], the IC50 amounted to 908 nM.

On to `CC(=O)N[C@@H](C)c1ccc(O[C@@H]2CCN(c3ccnc(N4CCOC(C)(C)C4)n3)C2)cc1` [Example 8.89], for which half-maximal inhibition (IC50) was put at 293 nM.

`CC(=O)N[C@@H](C)c1ccc(O[C@@H]2CCN(c3ncnc(NCC4(O)CCC4)c3Cl)C2)cc1` [Example 8.299] had a half-maximal inhibitory concentration (IC50) of 70 nM.

Turning to `COC1CCN(c2nccc(N3CC[C@@H](Oc4ccc([C@H](C)NC(C)=O)cc4)C3)n2)CC1` [Example 8.229], the 50% inhibitory concentration (IC50) worked out at 641 nM.

Take `CCCNc1ncc(F)c(N2CC[C@@H](Oc3ccc([C@H](C)NC(C)=O)cc3)C2)n1` [Example 8.302]: the IC50 came out at 202 nM.

As to `C[C@H](NC(=O)C1CC1)c1ccc(O[C@@H]2CCN(c3nc(N4CCC5(CC5)C4)ncc3F)C2)cc1` [Example 10.4], the 50% inhibitory concentration (IC50) is 120 nM.

On to `CC(=O)N[C@@H](C)c1ccc(O[C@@H]2CCN(c3nc(N4CCOC(C)(C)C4)ncc3Cl)C2)cc1` [Example 8.209], for which half-maximal inhibition (IC50) was put at 351 nM.

`CC(=O)N[C@@H](C)c1ccc(O[C@@H]2CCN(c3ccnc(N4CCc5nocc5C4)n3)C2)cc1` [Example 8.246] yielded an IC50 of 680 nM.

`CC(=O)N[C@@H](C)c1ccc(O[C@@H]2CCN(c3cc(N(C)CC4CC4)ncn3)C2)cc1` [Example 8.2] came in with an IC50 of 424 nM.

The molecule `CC(=O)N[C@@H](C)c1ccc(O[C@@H]2CCN(c3ncnc(N4CC[C@@H](C)C4)c3F)C2)cc1` [Example 8.294] returned a half-maximal inhibitory concentration (IC50) of 52 nM.

`COC(C)(C)COc1ncnc(N2CC[C@@H](Oc3ccc([C@H](C)NC(C)=O)cc3)C2)c1F` [Example 7.46] came in with a 50% inhibitory concentration (IC50) of 595 nM.

`CCOC(=O)N[C@@H](C)c1ccc(OC2CCN(c3ccnc(N4CCOCC4)n3)C2)cc1` (some centres unmarked) [Example 4.3]: the concentration for half-maximal inhibition (IC50) stood at 494 nM.

`CC(=O)N[C@@H](C)c1ccc(O[C@@H]2CCN(c3nc(N(C)C4CC4)ncc3F)C2)cc1` [Example 8.68] yielded an IC50 of 50 nM.

`CC(=O)N[C@@H](C)c1ccc(O[C@@H]2CCN(c3nc(N4CC(F)(F)C4)ncc3F)C2)cc1` [Example 8.67] yielded a concentration for half-maximal inhibition (IC50) of 130 nM.

In turn, `CC(=O)N[C@@H](C)c1ccc(O[C@@H]2CCN(c3nc(N4[C@H](C)CCC[C@H]4C)ncc3Cl)C2)cc1` [Example 8.173] gave a 50% inhibitory concentration (IC50) of 155 nM.

On to `C[C@H](NC(=O)N(C)C)c1ccc(OC2CCN(c3ncnc(OCC4CC4)c3F)C2)cc1` (some centres unmarked) [Example 3.10], for which the IC50 is 45 nM.

`CC(=O)N[C@@H](C)c1ccc(O[C@@H]2CCN(c3nc(N4CCOC(C)C4)ncc3F)C2)cc1` (some centres unmarked) [Example 8.274] registered an IC50 of 130 nM.

For `CC(=O)N[C@@H](C)c1ccc(O[C@@H]2CCN(c3nc(N4CCC(CO)C4)ncc3F)C2)cc1` (some centres unmarked) [Example 8.183], the IC50 was 807 nM.

The term IC50 denotes the concentration that inhibits the measured activity by half. Higher therefore signals a need for much substance.
